{
  "source": "patent US20040047922A1",
  "about": "“Preparation with vascular protective and anti-oxidative effect and use thereof” (priority 2000, published 2004)",
  "key": {"[1]": {"system": "tryptophane residues in apo B-100 of LDL", "experiment": "Cu(II)-induced loss of tryptophane fluorescence in LDL", "type": "biochemical", "conditions": "FIG. 5", "description": "Oxidation of HDL or LDL with Cu(II) goes along with a reduction of the tryptophane residues (Reyftmann et al., 1990, Biochim. Biophys. Acta 1042, pp. 159-167), which can be observed by measuring fluorescence. After adding Cu(II) to an LDL solution, fluorescence initially drops within a few seconds due to quenching effects caused by copper. […] The time before the slower phase changes into the faster phase can be defined as the lag phase, just like with diene conjugation. (Giessauf et.al., 1995, Biochim. Biophys. Acta 1256, pp. 221-232). The faster decline in fluorescence starts about at the same time as the propagation phase of diene conjugation and is most likely based on a reaction of lipid peroxidation products with tryptophane residues. We used this test system, too, to find out whether the accumulation of lemon oil or γ-terpinene in LDL influences the Cu(II)-induced loss of tryptophane fluorescence."}, "LDL": {"system": "LDL", "experiment": "Cu(II)-induced formation of conjugated dienes in LDL isolated from plasma pre-incubated with the test substance (lag phase)", "type": "biochemical", "conditions": "FIG. 2", "procedure": "In-vitro LDL oxidation is a common model for testing various substances for their antioxidant properties because they accumulate in the LDL in vitro due to pre-incubation of the plasma with (primarily lipophilic) test substances (McLean und Hagaman, 1989, Biochemistry 28(1); pp. 321-327, Esterbauer et al, 1991b, Am. J. Clin. Nutr. 53, pp. 315S-321S). After accumulation, the influence of these substances on the oxidability of LDL can be studied.\nContinuous measurement of the formation of conjugated dienes in LDL is an accepted method of comparing oxidizability of the lipid portion of various LDL samples (Esterbauer et al. 1989, Free Rad. Res. Comms. 6(1), pp. 67-75; Parthasarathy et al. 1998, Free Rad. Res. 28, pp. 583-591). […] The study was to find out whether accumulation of lemon oil or γ-terpinene in LDL can protect the LDL from Cu(II)-induced oxidation.\nIn another test, blood plasma was incubated with 0.5, 0.25, 0.1 and 0.01% γ-terpinene and the LDL isolated from it was tested for resistance against cooper-induced oxidation."}},
  "data": [
    {"smiles": "CC1=CCC(C(C)C)=CC1", "note": "[γ-terpinene]", "values": [
      {"measurement": "oxidation of tryptophane residues in LDL", "setting": "[1]; 0.5% of γ-terpinene in the plasma", "value": "almost completely prevents"},
      {"measurement": "early protein oxidation (loss of tryptophane fluorescence)", "setting": "[1]; LDL enriched with γ-terpinene", "value": "slows down"},
      {"measurement": "lag phase of conjugated diene formation", "setting": "LDL; 0.01% γ-terpinene in the plasma", "value": "clearly extended"},
      {"measurement": "extension of the lag phase of conjugated diene formation", "setting": "LDL; 0.1% γ-terpinene in the plasma", "value": "about 250 minutes"},
      {"measurement": "time without reaching the propagation phase", "setting": "LDL; higher concentrations in the plasma (0.25 and 0.5% γ-terpinene)", "value": "> 500", "unit": "min"},
      {"measurement": "lag phase of conjugated diene formation", "setting": "LDL; plasma incubated with 0.5, 0.25, 0.1 and 0.01% γ-terpinene, copper-induced oxidation", "value": "expands depending on concentration"}
    ]}
  ]
}
